Measurements: ChEMBL document CHEMBL3399975, “Rational design of specific binding hairpin Py-Im polyamides targeting human telomere sequences” (Bioorg Med Chem, 2015)

Experiments:
[1] = Binding affinity to human telomeric sequence in HBS-EP buffer at pH 7.4 at 25 degC by SPR analysis
[2] = Binding affinity to 5'-Biotin-GGTTAGAGTTAGGTTTTCCTAACTCTAACC-3' (unknown origin) in HBS-EP buffer at pH 7.4 at 25 degC by SPR analysis
[3] = Binding affinity to 5'-Biotin-GGTTAAGGTTAGGTTTTCCTAACCTTAACC-3' (unknown origin) in HBS-EP buffer at pH 7.4 at 25 degC by SPR analysis
[4] = Binding affinity to 5'-GGTTAGAGTTAGG-3'/3'-CCAATCTCAATCC-5' (unknown origin) assessed as change in melting temperature at pH 7 by UV-Vis spectrophotometry
[5] = organism: Homo sapiens; test: Binding affinity to human telomeric sequence assessed as change in melting temperature at pH 7 by UV-Vis spectrophotometry
[6] = Selectivity ratio of KD for 5'-Biotin-GGTTAGAGTTAGGTTTTCCTAACTCTAACC-3' (unknown origin) to KD for human telomeric sequence
[7] = Binding affinity to 5'-GGTTAAGGTTAGG-3'/3'-CCAATTCCAATCC-5' (unknown origin) assessed as change in melting temperature at pH 7 by UV-Vis spectrophotometry
[8] = Selectivity ratio of KD for 5'-Biotin-GGTTAAGGTTAGGTTTTCCTAACCTTAACC-3' (unknown origin) to KD for human telomeric sequence

Row | Kd [1] [nM] | Kd [2] [nM] | Kd [3] [nM] | ΔTm [4] [°C] | ΔTm [5] [°C] | Ratio [6] | ΔTm [7] [°C] | Ratio [8] | Structure (SMILES)
1 | 0.93 |  |  |  |  |  |  |  | CN(CCCNC(=O)CCNC(=O)c1nc(NC(=O)c2cc(NC(=O)c3cc(NC(=O)c4cc(NC(=O)[C@@H](CCNC(=O)c5cc(NC(=O)c6nc(NC(=O)c7nccn7C)cn6C)cn5C)NC(=O)COCCOCCNC(=O)c5nc(NC(=O)c6cc(NC(=O)c7cc(NC(=O)c8cc(NC(=O)[C@H](N)CCNC(=O)c9cc(NC(=O)c%10nc(NC(=O)c%11nccn%11C)cn%10C)cn9C)cn8C)cn7C)cn6C)cn5C)cn4C)cn3C)cn2C)cn1C)CCCNS(=O)(=O)c1ccc(C2=c3cc4c5c(c3Oc3c2cc2c6c3CCCN6CCC2)CCC[N+]=5CCC4)c(S(=O)(=O)[O-])c1
2 | 0.431 | 10.6 | 0.00561 | 21.6 | 27.4 | 24.6 | 31.6 | 0.013 | CN(CCCN)CCCNC(=O)CCNC(=O)c1cc(NC(=O)c2cc(NC(=O)c3cc(NC(=O)c4cc(NC(=O)[C@H](N)CCNC(=O)c5cc(NC(=O)c6nc(NC(=O)c7nccn7C)cn6C)cn5C)cn4C)cn3C)cn2C)cn1C
3 | 1.76 | 30.4 | 0.627 | 22.4 | 27.8 | 17.3 | 29.3 | 0.36 | CN(CCCN)CCCNC(=O)CCNC(=O)c1nc(NC(=O)c2cc(NC(=O)c3cc(NC(=O)c4cc(NC(=O)[C@H](N)CCNC(=O)c5cc(NC(=O)c6nc(NC(=O)c7nccn7C)cn6C)cn5C)cn4C)cn3C)cn2C)cn1C
4 | 1.56 | 51.1 | 20.7 | 18.3 | 27.7 | 32.8 | 24.8 | 13.3 | CN(CCCN)CCCNC(=O)CCNC(=O)c1cc(NC(=O)c2cc(NC(=O)c3cc(NC(=O)c4cc(NC(=O)[C@H](N)CCNC(=O)c5cc(NC(=O)c6nc(NC(=O)c7nc(NC(=O)c8nccn8C)cn7C)cn6C)cn5C)cn4C)cn3C)cn2C)cn1C
